# Where a name gives a salt, the structure may show the parent alone.
# Experiments:
# [1] = molecular target: IRAK4 (Homo sapiens (Human), UniProt Q9NWZ3); assay: IRAK4 enzymatic assay; assay type: biochemical
# How it was run: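 Recombinant His-TEV-IRAK4 (20 ng/well) phosphorylating biotinylated STK1 peptide (300 nM) with 2 μM ATP plus [^33P]ATP, 3 h at 30° C in pH 7.0 Hepes buffer with Mg2+ and Mn2+. Compounds 20 µM to 1 nM; EDTA stop, radioactivity captured on streptavidin FlashPlates.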
# [2] = tested on: TLR7 induced IL-6 secretion in human mononuclear cells (PBMC's); assay: TLR7 induced IL-6 in human PBMC's; assay type: cell-based; settings: Homo sapiens, PBMC, read-out: TLR7 induced IL-6 secretion in hPBMC's (IC50)
# Protocol: TLR7 Induced IL-6 in Human PBMC's
# Human PBMC assay was used as one of the functional assay a to monitor the activity of IRAK1 and IRAK4 small molecule inhibitors on TLR7 induced IL-6 secretion in human mononuclear cells (PBMC's). Human PBMCs were prepared from buffy coats (whole blood enriched with leukocytes and platelets) obtained from healthy volunteers used either fresh or frozen are plated in assay media (RPMI+2% P/S/L-glu+10% HI-FBS) and pre-treated with compounds in DMSO/media (range of concentrations from 25 uM to 0.4 nM) or controls (0.25% DMSO) for 30 minutes at 37° C. in assay media. Following pre-treatment with IRAK1 and IRAK4 inhibitors, PBMC's were stimulated with TLR7 specific ligand (2 uM) overnight (16-18 hrs) at 37° C. After incubation supernatant was transferred to 384 well PE AlphaPlate-384 (6005350) and IL-6 is quantified using Perkin Elmer IL-6 Alpha LISA kit (AL223C). Plates were read on an Envision® plate reader with Alpha Technology®.
# [3] = molecular target: IRAK1 (His-TEV-IRAK1 (194-712)) (Homo sapiens (Human), UniProt P51617); assay: IRAK1 enzymatic assay; assay type: biochemical
# Sequence of IRAK1 (His-TEV-IRAK1 (194-712)) (P51617 194-712): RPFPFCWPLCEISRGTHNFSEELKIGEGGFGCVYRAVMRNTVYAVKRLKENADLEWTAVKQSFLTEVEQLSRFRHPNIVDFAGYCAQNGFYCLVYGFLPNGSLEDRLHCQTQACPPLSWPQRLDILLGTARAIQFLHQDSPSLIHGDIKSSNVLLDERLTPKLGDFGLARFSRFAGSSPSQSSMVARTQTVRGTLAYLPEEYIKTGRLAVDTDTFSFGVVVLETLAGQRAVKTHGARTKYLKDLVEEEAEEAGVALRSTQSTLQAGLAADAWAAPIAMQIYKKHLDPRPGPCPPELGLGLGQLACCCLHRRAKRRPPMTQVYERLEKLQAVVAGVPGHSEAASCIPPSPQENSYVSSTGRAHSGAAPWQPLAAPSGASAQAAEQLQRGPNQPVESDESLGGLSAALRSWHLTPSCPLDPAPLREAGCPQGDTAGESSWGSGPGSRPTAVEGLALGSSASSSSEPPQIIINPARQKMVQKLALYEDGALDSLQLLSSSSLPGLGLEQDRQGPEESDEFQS
# How it was run: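 Recombinant His-TEV-IRAK1 (194-712), 15 ng/well, autophosphorylation with 1 μM ATP plus [33P]ATP, 3 h at 30° C in Hepes pH 7.0 buffer with MgCl2, DTT, EGTA, BSA and Triton; compounds from 20 µM to 1 nM. The reaction was stopped with EDTA, and radioactivity was counted in streptavidin FlashPlates.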
# Sequence of IRAK4 (Q9NWZ3 whole entry): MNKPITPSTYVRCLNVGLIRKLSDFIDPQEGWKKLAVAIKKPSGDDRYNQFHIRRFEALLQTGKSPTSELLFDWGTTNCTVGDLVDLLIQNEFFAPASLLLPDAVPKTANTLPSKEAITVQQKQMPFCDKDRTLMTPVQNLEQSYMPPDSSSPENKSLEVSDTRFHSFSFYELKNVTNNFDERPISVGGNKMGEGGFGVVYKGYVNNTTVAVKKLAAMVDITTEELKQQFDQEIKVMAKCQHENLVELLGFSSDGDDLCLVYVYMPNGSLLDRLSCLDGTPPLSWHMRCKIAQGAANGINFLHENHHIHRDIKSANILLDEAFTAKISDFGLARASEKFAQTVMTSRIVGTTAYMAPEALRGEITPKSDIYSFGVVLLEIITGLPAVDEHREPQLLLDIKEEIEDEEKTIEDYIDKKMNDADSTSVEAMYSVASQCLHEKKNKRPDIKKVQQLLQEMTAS
smiles,measurement,setting,value
"Cn1cc(-c2cccc(-c3ccc(-c4cnn(C5CCNCC5)c4)cn3)c2)cn1 [Example 1, 2-[3-(1-Methyl-1H-pyrazol-4-yl)-phenyl]-5-(1-piperidin-4-yl-1H-pyrazol-4-yl)-pyridine Hydrochloride]",IC50,[1],100 to 1000 nM
same,IC50,[2],1000 to 5000 nM
same,IC50,[3],> 5000 nM
"Cn1cc(-c2cccc(-c3ncc(-c4cnn(C)c4)c(NCC4CCNCC4)n3)c2)cn1 [Example 7, {5-(1-Methyl-1H-pyrazol-4-yl)-2-[3-(1-methyl-1H-pyrazol-4-yl)-phenyl]-pyrimidin-4-yl}-piperidin-4-ylmethyl-amine]",IC50,[1],100 to 1000 nM
same,IC50,[2],1000 to 5000 nM
same,IC50,[3],100 to 1000 nM
"Cn1cc(-c2cccc(-c3ncc(-c4cnn(C)c4)c(OCC4(C)COC4)n3)c2)cn1 [Example 9, 4-(3-Methyl-oxetan-3-ylmethoxy)-5-(1-methyl-1H-pyrazol-4-yl)-2-[3-(1-methyl-1H-pyrazol-4-yl)-phenyl]-pyrimidine]",IC50,[1],100 to 1000 nM
same,IC50,[2],1000 to 5000 nM
same,IC50,[3],1000 to 5000 nM
"Cn1cc(-c2cccc(-c3ncc(-c4ccn(C)n4)c(NCC4CCCNC4)n3)c2)cn1 (stereo not drawn) [Example 10, {5-(1-Methyl-1H-pyrazol-3-yl)-2-[3-(1-methyl-1H-pyrazol-4-yl)-phenyl]-pyrimidin-4-yl}-piperidin-3-ylmethyl-amine]",IC50,[1],100 to 1000 nM
same,IC50,[2],1000 to 5000 nM
same,IC50,[3],100 to 1000 nM
"Cn1cc(-c2cccc(-c3ncc(-c4cnn(C)c4)c(OCC4COC4)n3)c2)cn1 [Example 11, 5-(1-Methyl-1H-pyrazol-4-yl)-2-[3-(1-methyl-1H-pyrazol-4-yl)-phenyl]-4-(oxetan-3-ylmethoxy)-pyrimidine]",IC50,[1],100 to 1000 nM
same,IC50,[2],1000 to 5000 nM
same,IC50,[3],> 5000 nM
"Cn1cc(-c2cccc(-c3ncc(-c4cnn(C)c4)c(NCC4CCOCC4)n3)c2)cn1 [Example 13, {5-(1-Methyl-1H-pyrazol-4-yl)-2-[3-(1-methyl-1H-pyrazol-4-yl)-phenyl]-pyrimidin-4-yl}-(tetrahydro-pyran-4-ylmethyl)-amine]",IC50,[1],100 to 1000 nM
same,IC50,[2],1000 to 5000 nM
same,IC50,[3],100 to 1000 nM
"Cc1nnc(-c2cnc(-c3cccc(-c4cnn(C)c4)c3)nc2NC(C)C)s1 [Example 15, Isopropyl-[2-[3-(1-methyl-1H-pyrazol-4-yl)-phenyl]-5-(5-methyl-[1,3,4]thiadiazol-2-yl)-pyrimidin-4-yl]-amine]",IC50,[1],< 100 nM
same,IC50,[2],100 to 1000 nM
same,IC50,[3],100 to 1000 nM
"CC(C)Nc1nc(-c2cccc(-c3cnn(C)c3)c2)ncc1-c1nnc(C(=O)N2CC[C@@H](O)C2)s1 [Example 16, ((R)-3-Hydroxy-pyrrolidin-1-yl)-(5-{4-isopropylamino-2-[3-(1-methyl-1H-pyrazol-4-yl)-phenyl]-pyrimidin-5-yl}-[1,3,4]thiadiazol-2-yl)-methanone]",IC50,[1],< 100 nM
same,IC50,[2],100 to 1000 nM
same,IC50,[3],100 to 1000 nM
"Cc1nnc(-c2cnc(-c3cccc(-c4cnn(C)c4)c3)nc2NC2CCCNC2)s1 (stereo not drawn) [Example 17, [2-[3-(1-Methyl-1H-pyrazol-4-yl)-phenyl]-5-(5-methyl-[1,3,4]thiadiazol-2-yl)-pyrimidin-4-yl]-piperidin-3-yl-amine Hydrochloride]",IC50,[1],< 100 nM
same,IC50,[2],100 to 1000 nM
same,IC50,[3],> 5000 nM
"COC(=O)c1nnc(-c2cnc(-c3cccc(-c4cnn(C)c4)c3)nc2NC2CCCNC2)s1 (stereo not drawn) [Example 18, 5-[2-[3-(1-Methyl-1H-pyrazol-4-yl)-phenyl]-4-(piperidin-3-ylamino)-pyrimidin-5-yl]-[1,3,4]thiadiazole-2-carboxylic Acid Methyl Ester Hydrochloride]",IC50,[1],< 100 nM
same,IC50,[2],100 to 1000 nM
same,IC50,[3],> 5000 nM
"COC(=O)c1nnc(-c2cnc(-c3cccc(-c4cnn(C)c4)c3)nc2NCC2CNC2)s1 [Example 19, 5-{4-[(Azetidin-3-ylmethyl)-amino]-2-[3-(1-methyl-1H-pyrazol-4-yl)-phenyl]-pyrimidin-5-yl}-[1,3,4]thiadiazole-2-carboxylic Acid Methyl Ester Trifluoroacetate]",IC50,[1],100 to 1000 nM
same,IC50,[2],1000 to 5000 nM
same,IC50,[3],> 5000 nM
"Cn1cc(-c2cccc(-c3ncc(-c4nnc(C(=O)N5CC[C@@H](O)C5)s4)c(NC4CCCNC4)n3)c2)cn1 (stereo partly drawn) [Example 20, ((R)-3-Hydroxy-pyrrolidin-1-yl)-{5-[2-[3-(1-methyl-1H-pyrazol-4-yl)-phenyl]-4-(piperidin-3-ylamino)-pyrimidin-5-yl]-[1,3,4]thiadiazol-2-yl}-methanone Hydrochloride]",IC50,[1],1000 to 5000 nM
same,IC50,[2],100 to 1000 nM
same,IC50,[3],100 to 1000 nM
"CC(C)Nc1cc(-c2cccc(-c3cnn(C)c3)c2)ncc1-c1nnc(C(=O)N2CC[C@@H](O)C2)s1 [Example 21, ((R)-3-Hydroxy-pyrrolidin-1-yl)-(5-{4-isopropylamino-6-[3-(1-methyl-1H-pyrazol-4-yl)-phenyl]-pyridin-3-yl}-[1,3,4]thiadiazol-2-yl)-methanone]",IC50,[1],< 100 nM
same,IC50,[2],1000 to 5000 nM
same,IC50,[3],1000 to 5000 nM
"CC(C)Nc1cc(-c2cccc(-c3cnn(C)c3)n2)ncc1-c1nnc(C(=O)N2CC[C@@H](O)C2)s1 [Example 22, ((R)-3-Hydroxy-pyrrolidin-1-yl)-{5-[4-isopropylamino-6′-(1-methyl-1H-pyrazol-4-yl)-[2,2′]bipyridinyl-5-yl]-[1,3,4]thiadiazol-2-yl}-methanone]",IC50,[1],< 100 nM
same,IC50,[2],100 to 1000 nM
same,IC50,[3],100 to 1000 nM
Cn1cc(-c2cccc(-c3ncc(-c4cnn(C)c4)c(NC4CCCC4)n3)c2)cn1 [Example 32],IC50,[1],< 100 nM
same,IC50,[2],1000 to 5000 nM
same,IC50,[3],100 to 1000 nM
Cn1cc(-c2cccc(-c3ncc(-c4cnn(C)c4)c(NCCCO)n3)c2)cn1 [Example 35],IC50,[1],100 to 1000 nM
same,IC50,[2],1000 to 5000 nM
same,IC50,[3],100 to 1000 nM
Cn1cc(-c2cccc(-c3ncc(-c4cnn(C)c4)c(NCCN4CCOCC4)n3)c2)cn1 [Example 36],IC50,[1],100 to 1000 nM
same,IC50,[2],100 to 1000 nM
same,IC50,[3],1000 to 5000 nM
Cn1cc(-c2cccc(-c3ncc(-c4cnn(C)c4)c(NCc4ccncc4)n3)c2)cn1 [Example 37],IC50,[1],100 to 1000 nM
same,IC50,[2],1000 to 5000 nM
same,IC50,[3],1000 to 5000 nM
Cn1cc(-c2cccc(-c3ncc(-c4cnn(C)c4)c(NCCN4CCOC4=O)n3)c2)cn1 [Example 38],IC50,[1],100 to 1000 nM
same,IC50,[2],> 5000 nM
same,IC50,[3],1000 to 5000 nM
Cn1cc(-c2cccc(-c3ncc(-c4cnn(C)c4)c(NC4CCOC4)n3)c2)cn1 (stereo not drawn) [Example 41],IC50,[1],100 to 1000 nM
same,IC50,[2],1000 to 5000 nM
same,IC50,[3],100 to 1000 nM
Cn1cc(-c2cccc(-c3ncc(-c4cnn(C)c4)c(NCC4CC(F)(F)C4)n3)c2)cn1 [Example 42],IC50,[1],100 to 1000 nM
same,IC50,[2],100 to 1000 nM
same,IC50,[3],100 to 1000 nM
Cn1cc(-c2cccc(-c3ncc(-c4cnn(C)c4)c(NCC4(C)CCC4)n3)c2)cn1 [Example 43],IC50,[1],100 to 1000 nM
same,IC50,[2],1000 to 5000 nM
same,IC50,[3],100 to 1000 nM
Cn1cc(-c2cccc(-c3ncc(-c4cnn(C)c4)c(N[C@H]4CC[C@@H](N)CC4)n3)c2)cn1 [Example 44],IC50,[1],< 100 nM
same,IC50,[2],100 to 1000 nM
same,IC50,[3],100 to 1000 nM
CN(CC1(F)COC1)c1nc(-c2cccc(-c3cnn(C)c3)c2)ncc1-c1cnn(C)c1 [Example 45],IC50,[1],100 to 1000 nM
same,IC50,[2],1000 to 5000 nM
same,IC50,[3],1000 to 5000 nM
Cn1cc(-c2cccc(-c3ncc(-c4cnn(C)c4)c(N[C@H]4C[C@@H](O)C4)n3)c2)cn1 [Example 46],IC50,[1],100 to 1000 nM
same,IC50,[2],> 5000 nM
same,IC50,[3],100 to 1000 nM
Cn1cc(-c2cccc(-c3ncc(-c4cnn(C)c4)c(N[C@H]4C[C@H](O)C4)n3)c2)cn1 [Example 47],IC50,[1],100 to 1000 nM
same,IC50,[2],> 5000 nM
same,IC50,[3],1000 to 5000 nM

# Source: patent US9790221B2, “Heteroaryl compounds as IRAK inhibitors and uses thereof” (Merck Patent GmbH, priority 2014, dated 2017)
